pIC50: −log10 of the molar value.
Experiments:
[1] = molecular target: T1, Shp2 (Mus musculus, UniProt P35235); assay: pNPP phosphatase assay with purified GST-PTP domain, absorbance at […] nm; Ki also determined ([…]); assay type: biochemical
T1 construct: gene Ptpn11; GST-tagged PTP domain
T1 sequence (P35235 247-521 limits assumed): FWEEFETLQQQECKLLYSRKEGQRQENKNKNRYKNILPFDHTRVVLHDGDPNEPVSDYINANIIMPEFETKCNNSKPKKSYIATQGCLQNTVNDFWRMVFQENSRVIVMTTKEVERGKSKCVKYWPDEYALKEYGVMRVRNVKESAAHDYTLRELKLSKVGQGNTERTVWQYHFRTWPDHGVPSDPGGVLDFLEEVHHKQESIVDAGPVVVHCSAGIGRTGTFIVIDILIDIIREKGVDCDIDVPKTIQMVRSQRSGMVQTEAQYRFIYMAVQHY

[2] = molecular target: T2, Shp1 (Mus musculus, UniProt P29351); assay: phosphatase inhibition assay with purified GST-PTP domain; assay type: biochemical
T2 construct: gene Ptpn6; GST-tagged PTP domain
T2 sequence (P29351 244-515 limits assumed): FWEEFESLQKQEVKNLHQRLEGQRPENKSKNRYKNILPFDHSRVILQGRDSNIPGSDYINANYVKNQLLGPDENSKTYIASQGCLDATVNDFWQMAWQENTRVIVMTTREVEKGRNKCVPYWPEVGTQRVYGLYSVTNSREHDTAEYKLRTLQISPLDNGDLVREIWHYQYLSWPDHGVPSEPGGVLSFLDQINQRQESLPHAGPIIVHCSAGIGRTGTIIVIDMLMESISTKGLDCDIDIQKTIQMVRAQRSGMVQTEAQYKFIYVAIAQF

- pIC50 [1]: 5.68
- pIC50 [2]: 5.64
Structure (SMILES): O=C(O)c1cc(O)c(=O)c2c(O)c(O)ccc2c1 [DCA, 7-deshydroxypyrogallin-4-carboxylic acid]

From publication PMC2655646, “A Conserved Mechanism for Control of Human and Mouse Embryonic Stem Cell Pluripotency and Differentiation by Shp2 Tyrosine Phosphatase” (PLoS ONE, 2009)
